Data from patent publication US20170202219A1, “CLOQUINTOCET SALTS FOR SAFENING PYROXSULAM COMPOSITIONS” (Dow AgroSciences LLC, priority 2016, published 2017).
Read-outs that look alike come from different tables or passages of the source. Values belong to the compound of their own block, whether it stands above or below them.

How the values were obtained:
[1] = system: cell membranes; experiment: Neutral Red Release (NRR) assay, eye irritation potential of aqueous CQC salt solutions; conditions: for NRR50, mg ae/mL: aqueous solution of the CQC salt diluted in PBS, NRR50 corrected to CQC acid equivalent concentration
[2] = Water solubility of cloquintocet salts at 20° C.
[3] = system: cell membranes
[4] = system: wild oats (Avena fatua L., AVEFA); experiment: Greenhouse evaluation, control of wild oats; format: in vivo; conditions: pyroxsulam:cloquintocet (AE) 1:2.1, postemergence spray
Text: A peat based potting soil, Metro-mix 360, (produced by Sun Gro Horticulture Canada CM Ltd) was used as the soil media for this test. Metro-mix 360 is a growing medium consisting of Canadian sphagnum peat moss, coarse perlite, bark ash, starter nutrient charge (with gypsum) and slow release nitrogen and dolomitic limestone. Several seeds of each crop or weed species were planted in 10 cm square pots and top watered twice daily. Plant material was propagated in greenhouse zone E2 at temperatures ranging from 18 to 20° C. and 50 to 60% relative humidity. Natural light was supplemented with 1000-watt metal halide overhead lamps with an average illumination of 500 microeinsteins per square meter per second (μE m^−2 s^−1) photosynthetic active radiation (PAR). Day length was 16 hours. Plant material was top-watered prior to treatment and sub-irrigated after treatment.
Herbicides were applied with a track sprayer manufactured by Allen Machine Works and located in building 306, room E1-483, at the Dow AgroSciences Indianapolis, Ind. Global Headquarters site (9330 Zionsville Road, Indianapolis, Ind., USA). The track sprayer was calibrated to deliver 50 L/ha at 40 psi (262 kPa) pressure utilizing an 8001E even flat fan nozzle tip with a speed of 1.6 mph (2.6 km/h). The nozzle height was 46 cm above the plant canopy. Appropriate amounts of formulated product were added to vials as calculated by the software package ARM8 (Gylling Data Management Inc.). The vials contained a pH 7 phosphate buffer (Fischer Scientific) and the herbicide aliquots were diluted to a total volume of 60 ml. The growth stage of the crop and weed species at application was 2 to 4 leaf (Table 11). The application rates were 0, 17.8 and 37.6 g ai/ha of pyroxsulam for crop tolerance comparisons and 0, 2.35 and 4.7 g ai/ha of pyroxsulam for weed control comparisons. Cloquintocet was applied at a 1:2.1 ratio of pyroxsulam (g ai):cloquintocet (g ae) in all treatments containing the safener. Treatments were replicated 4 times. Plants were returned to the greenhouse after treatment and sub-watered throughout the duration of the experiment. Plant material was fertilized twice weekly with Hoagland's fertilizer solution that is readily available in the greenhouses. Percent visual injury assessments were made on a scale of 0 to 100% as compared to the untreated control plants (where 0 is equal to no injury and 100 is equal to complete death of the plant.
Visual determination of the control of wild oats (Avena fatua L., AVEFA) treated with pyroxsulam alone and with several forms of cloquintocet was conducted. All forms of cloquintocet were applied at a 1:2.1 weight ratio of pyroxsulam:cloquintocet (AE).

[5] = system: durum wheat (Triticum durum L. TRZDU); conditions: pyroxsulam:cloquintocet (AE) 1:2.1, postemergence spray
[6] = system: spring wheat (Triticum aestivum L., TRZAS); conditions: pyroxsulam:cloquintocet (AE) 1:2.1, postemergence spray
[7] = system: cell membranes; remark: listed apart in the source
[8] = solubility solution, water, 20° C.

Compound: CCCCCCCCCCCCOS(=O)(=O)[O-].[Na+] [SDS, Sodium dodecyl sulfate]
- NRR assay result of positive control ([1]; 5 mg/ml, two independent assay replicates): positive

- Calculated water solubility wt % ai ([2]; pH 7 buffer solution, 20° C.): 1.4 wt % ai
- Density ([2]; pH 7 buffer solution, 20° C.): 1.0 g/mL
- Neat pH ([2]; pH 7 buffer solution, 20° C.): 5.6
Compound: O=C(O)COc1ccc(Cl)c2cccnc12 [Acid, Cloquintocet]
- Water Solubility wt % ae ([2]; pH 7 buffer solution, 20° C.): 1.4 wt % ae
- Water Solubility wt % ae ([2]; pH 7 buffer solution, 20° C., listed as CQC acid): about 1.4 wt % ae
- NRR50, mg ae/mL [3]: 9 mg ae/mL
- AVEFA Control 21 DAA (% Control) ([4]; pyroxsulam 2.35 g ai/ha): 96 % Control
- AVEFA Control 21 DAA (% Control) ([4]; pyroxsulam 4.7 g ai/ha): 99 % Control

Compound: COc1cc(OC)n2nc(NS(=O)(=O)c3c(C(F)(F)F)ccnc3OC)nc2n1 [Pyroxsulam, N-(5,7-dimethoxy [1,2,4]triazolo [1,5-a]pyrimidin-2-yl)-2-methoxy-4-(trifluoromethyl)pyridine-3-sulfonamide]
- AVEFA Control 21 DAA (% Control) ([4]; pyroxsulam 2.35 g ai/ha): 86 % Control
- AVEFA Control 21 DAA (% Control) ([4]; pyroxsulam 4.7 g ai/ha): 98 % Control

- Density [2, 8]: 1.1 g/mL
- Neat pH [2, 8]: 6.3
Compound: NCCO [Monoethanolamine]

- Density [2, 8]: 1.1 g/mL
- Neat pH [2, 8]: 6.4
Compound: CC(O)CNCC(C)O (centres unmarked) [Diisopropanolamine]

Compound: Ammonium [reference compound]
- Density [2, 8]: 1.0 g/mL
- Neat pH [2, 8]: 5.7
- NRR50, mg ae/mL [1]: 3 mg ae/mL

Compound: CC(C)NC(C)C [Diisopropylamine]
- Density [2]: 1.1 g/mL
- Neat pH [2]: 5.9

Compound: CNC [Dimethylamine]
- TRZDU Injury 22 DAA (% Injury) ([5]; pyroxsulam 18.8 g ai/ha): 9 % Injury
- TRZDU Injury 22 DAA (% Injury) ([5]; pyroxsulam 37.6 g ai/ha): 15 % Injury
- Density [2]: 1.2 g/mL
- Neat pH [2]: 6
- TRZAS Injury 22 DAA (% Injury) ([6]; pyroxsulam 18.8 g ai/ha): 11 % Injury
- TRZAS Injury 22 DAA (% Injury) ([6]; pyroxsulam 37.6 g ai/ha): 11 % Injury
- AVEFA Control 21 DAA (% Control) ([4]; pyroxsulam 2.35 g ai/ha): 88 % Control
- AVEFA Control 21 DAA (% Control) ([4]; pyroxsulam 4.7 g ai/ha): 90 % Control

Compound: CC(O)CN (centres unmarked) [Isopropanolamine]
- TRZDU Injury 22 DAA (% Injury) ([5]; pyroxsulam 18.8 g ai/ha): 9 % Injury
- TRZDU Injury 22 DAA (% Injury) ([5]; pyroxsulam 37.6 g ai/ha): 12 % Injury
- Density [2]: 1.1 g/mL
- Neat pH [2, 8]: 7.4
- TRZAS Injury 22 DAA (% Injury) ([6]; pyroxsulam 18.8 g ai/ha): 2 % Injury
- TRZAS Injury 22 DAA (% Injury) ([6]; pyroxsulam 37.6 g ai/ha): 20 % Injury
- AVEFA Control 21 DAA (% Control) ([4]; pyroxsulam 2.35 g ai/ha): 80 % Control
- AVEFA Control 21 DAA (% Control) ([4]; pyroxsulam 4.7 g ai/ha): 90 % Control
- NRR50 (% v/v) [7]: 29 % v/v
- NRR50, mg ae/mL [7]: 56 mg ae/mL

Compound: CCCCCC(C)OC(=O)COc1ccc(Cl)c2cccnc12 (centres unmarked) [mexyl, cloquintocet-mexyl, reference compound]
- AVEFA Control 21 DAA (% Control) ([4]; pyroxsulam 2.35 g ai/ha): 71 % Control
- AVEFA Control 21 DAA (% Control) ([4]; pyroxsulam 4.7 g ai/ha): 84 % Control

Compound: CCNCC [Diethylamine]
- TRZDU Injury 22 DAA (% Injury) ([5]; pyroxsulam 18.8 g ai/ha): 12 % Injury
- TRZDU Injury 22 DAA (% Injury) ([5]; pyroxsulam 37.6 g ai/ha): 18 % Injury
- TRZAS Injury 22 DAA (% Injury) ([6]; pyroxsulam 18.8 g ai/ha): 5 % Injury
- TRZAS Injury 22 DAA (% Injury) ([6]; pyroxsulam 37.6 g ai/ha): 15 % Injury
- AVEFA Control 21 DAA (% Control) ([4]; pyroxsulam 2.35 g ai/ha): 88 % Control
- AVEFA Control 21 DAA (% Control) ([4]; pyroxsulam 4.7 g ai/ha): 99 % Control

Compound: OCCNCCO [Diethanolamine]
- AVEFA Control 21 DAA (% Control) ([4]; pyroxsulam 2.35 g ai/ha): 88 % Control
- AVEFA Control 21 DAA (% Control) ([4]; pyroxsulam 4.7 g ai/ha): 94 % Control

Compound: CC(C)N [Isopropylamine]
- Density [2]: 1.1 g/mL
- Neat pH [2]: 5.7
- AVEFA Control 21 DAA (% Control) ([4]; pyroxsulam 2.35 g ai/ha): 90 % Control
- AVEFA Control 21 DAA (% Control) ([4]; pyroxsulam 4.7 g ai/ha): 99 % Control

Compound: CN(C)CCO [N,N-dimethylethanolamine]
- Neat pH [2, 8]: 5.7

Compound: cloquintocet choline salt
- TRZDU Injury 22 DAA (% Injury) ([5]; pyroxsulam 18.8 g ai/ha): 9 % Injury
- TRZDU Injury 22 DAA (% Injury) ([5]; pyroxsulam 37.6 g ai/ha): 12 % Injury
- Density [2]: 1.1 g/mL
- Neat pH [2]: 6.8
- NRR50, mg ae/mL [1]: 213 mg ae/mL
- TRZAS Injury 22 DAA (% Injury) ([6]; pyroxsulam 18.8 g ai/ha): 6 % Injury
- TRZAS Injury 22 DAA (% Injury) ([6]; pyroxsulam 37.6 g ai/ha): 21 % Injury
- AVEFA Control 21 DAA (% Control) ([4]; pyroxsulam 2.35 g ai/ha): 94 % Control
- AVEFA Control 21 DAA (% Control) ([4]; pyroxsulam 4.7 g ai/ha): 99 % Control
